Laboratory results from patent publication US6989252B2, “Hydrogen production using hydrogenase-containing oxygenic photosynthetic organisms” (Midwest Research Institute, priority 1999, dated 2006).

System: H2-producing C. reinhardtii cultures
Assay: H2 gas collection from H2-producing sulfur-deprived cultures after inhibitor addition
Assay type: cell-based, Chlamydomonas reinhardtii
Details: inhibitor added to H2-producing sulfur-depleted cultures
Source text: Culture bottles (Schott or Roux type) were fitted with an #25 Ace thread and smaller side-ports for liquid sampling. A threaded glass stopper with capillaries for gas sampling was fitted with a Viton O-ring and used to seal the reactor. Threaded side-arm and gas sampling ports were sealed with rubber laminated Teflon septa. Teflon tubing (Aminco, HPLC), attached to one of the gas ports, was used to conduct gas evolved by the algae in the culture bottles to an upside-down graduated cylinder filled with H2O. The gas collection tubing was detached from the culture bottle during liquid and gas sampling to avoid disturbance of gas volume readings in the graduated cylinder.
We, thus, conclude that most of the reductants for H2 production are generated by residual water oxidation activity in sulfur-depleted C. reinhardtii cultures, but that an endogenous substrate may also contribute electrons for the process.

Compound	rate of H2 gas collection relative to its initial value (% of initial value)	inhibition of H2 gas collection
CN(C)C(=O)Nc1ccc(Cl)c(Cl)c1 [DCMU]	about 20%	
CC1=C(Br)C(=O)C(C(C)C)=C(Br)C1=O [DBMIB]		Total inhibition
